# Test results taken from article PMC8474115 (Journal of Medicinal Chemistry, 2021).
# “And” between values parts separate entries of the source, which are not always exact repeats. Equal entries are not always repeated. Structures can show the parent of a compound that is named as a salt. Where two headings read alike, the source gives them in different places.
# Legend:
# [1] = target: T1, 5-HT3R (Cavia porcellus, UniProt O70212); settings: for antagonist effect: percent inhibition of response to 5-HT 3 μM (contraction of guinea pig ileum); for functional classification at 5-HT3R: guinea pig ileum contraction
# T1 sequence (O70212 20-490): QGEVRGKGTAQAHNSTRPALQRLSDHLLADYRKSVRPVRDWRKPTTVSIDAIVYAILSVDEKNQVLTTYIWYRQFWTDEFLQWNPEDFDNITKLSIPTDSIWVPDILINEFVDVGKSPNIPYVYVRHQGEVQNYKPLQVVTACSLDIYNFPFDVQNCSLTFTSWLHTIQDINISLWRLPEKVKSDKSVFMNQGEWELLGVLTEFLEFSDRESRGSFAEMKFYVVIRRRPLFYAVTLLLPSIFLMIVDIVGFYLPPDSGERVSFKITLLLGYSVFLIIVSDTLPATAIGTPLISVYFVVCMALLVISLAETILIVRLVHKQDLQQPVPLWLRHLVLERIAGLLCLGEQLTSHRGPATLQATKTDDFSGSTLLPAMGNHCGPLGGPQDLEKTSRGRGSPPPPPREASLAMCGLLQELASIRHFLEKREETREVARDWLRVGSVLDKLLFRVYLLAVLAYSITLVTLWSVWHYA
# Protocol: Isolated guinea pig ileum was employed to test the affinity and the intrinsic activity of the investigated compounds for 5-HT3 receptors. […] A 15 cm ileum segment was excised from the small intestine of male guinea pigs and immersed into a Krebs solution (NaCl 120 mM, KCl 5.6 mM, MgCl2 2.2 mM, CaCl2 2.4 mM, NaHCO3 19 mM, glucose 10 mM). After the first 5 cm length closest to the ileocaecal junction had been discarded 2 cm-long fragments were cut. Each segment of the ileum was placed in a 20 mL chamber of tissue organ bath system (Tissue Organ Bath System – 750 TOBS, DMT, Denmark) filled with the Krebs solution at 37° C, pH 7.4, with constant oxygenation (O2/CO2, 19:1), fixed by the lower end to a rod and by the upper end to the force–displacement transducer. The preparation was allowed to stabilize in organ baths for 60 min under a resting tension of 0.5 g, washing every 15 min with fresh Krebs solution. After the equilibration period, a cumulative concentration–response curve was constructed in each tissue for 5-HT (10 nM – 10 μM) by the method of van Rossum.[64] […] Selected compounds were tested using an additional method. After establishment of the first 5-HT concentration–response curve, washing out of the tissue, and stabilization period, the same tissues were subsequently incubated with one of the concentrations of the tested compound for 15 min and the next cumulative concentration curve to 5-HT was obtained. Only one concentration of a studied compound was tested in each piece of tissue.
# [2] = target: T2, h5-HT6R (Homo sapiens, UniProt P50406); settings: HEK cells stably expressing h5-HT6R
# Protocol: For membrane preparation, cells after reaching 90% confluence, were washed with phosphate-buffered saline (PBS), and pelleted by centrifugation (200 × g) in PBS containing 0.1 mM EDTA and 1 mM dithiothreitol.
# The total reaction volume was 200 μL. The incubation process was terminated by filtration through UniFilter-96 (PerkinElmer) plates with the FilterMate Universal Harvester (PerkinElmer, #C961962), and radioactivity retained on the filters was quantified on a MicroBeta counter for radiometric detection (PerkinElmer). […] To evaluate the level of nonspecific signal 10 μM of 5-HT for 5-HT1AR and 5-HT7R, 20 μM of mianserin for 5-HT2AR, 10 μM of methiothepine for 5-HT6R and 10 μM of haloperidol for D2LR were used. […] The acquired results were presented as the mean of at least two independent experiments.
# [3] = target: T2, h5-HT6R; assay: Inhibition of 5-CT-induced cAMP production in 1321N1 cells expressing h5-HT6R; type: cell-based; parameters: host or cells: 1321N1; settings: 10^–6 M, percent inhibition of control agonist response
# T2 sequence (P50406 whole entry): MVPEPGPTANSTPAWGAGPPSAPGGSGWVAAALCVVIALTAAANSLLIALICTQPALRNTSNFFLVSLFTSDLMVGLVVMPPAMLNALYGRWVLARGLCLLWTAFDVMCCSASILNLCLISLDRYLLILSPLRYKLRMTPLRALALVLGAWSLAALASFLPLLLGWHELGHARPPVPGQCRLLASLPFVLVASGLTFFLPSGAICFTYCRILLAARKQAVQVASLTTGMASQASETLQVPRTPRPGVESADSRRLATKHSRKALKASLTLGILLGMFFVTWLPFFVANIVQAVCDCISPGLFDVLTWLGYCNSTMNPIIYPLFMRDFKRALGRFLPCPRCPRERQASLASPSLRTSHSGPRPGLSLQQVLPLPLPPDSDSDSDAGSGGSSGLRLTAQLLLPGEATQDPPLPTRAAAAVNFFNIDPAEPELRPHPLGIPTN
SMILES,melting point [°C],antagonist effect ([1]; 300 nM),other results
O=S(=O)(c1ccccc1Cl)n1ccc2c(N3CCNCC3)nc3ccccc3c21 (as salt: hydrochloride),157 to 159,,
O=S(=O)(c1ccc(F)c(F)c1)n1ccc2c(N3CCNCC3)nc3ccccc3c21 (as salt: hydrochloride),180 to 182,,
O=S(=O)(c1ccc(Cl)c(Cl)c1)n1ccc2c(N3CCNCC3)nc3ccccc3c21 (as salt: hydrochloride),203 to 205,,
O=S(=O)(c1cccc2ccccc12)n1ccc2c(N3CCNCC3)nc3ccccc3c21 (as salt: hydrochloride),218 to 220,,
"CN1CCN(c2nc3ccccc3c3c2ccn3S(=O)(=O)c2ccccc2)CC1 (as salt: hydrochloride) [Compound 6, 1-(Phenylsulfonyl)-4-(4-methylpiperazin-1-yl)-1H-pyrrolo[3,2-c]quinoline hydrochloride]",127 to 129,,
"O=S(=O)(c1ccccc1)n1ccc2c(N3CCNCC3)nc3ccccc3c21 (as salt: hydrochloride) [Compound 7, 1-(Phenylsulfonyl)-4-(piperazin-1-yl)-1H-pyrrolo[3,2-c]quinoline dihydrochloride]",130 to 132,,
"O=S(=O)(c1ccccc1)n1ccc2c(N[C@H]3CCNC3)nc3ccccc3c21 (as salt: hydrochloride) [Compound 8, (S)-1-(Phenylsulfonyl)-N-(pyrrolidin-3-yl)-1H-pyrrolo[3,2-c]quinolin-4-amine dihydrochloride]",220 to 222,,
"O=S(=O)(c1ccccc1)n1ccc2c(NC3CNC3)nc3ccccc3c21 (as salt: hydrochloride) [Compound 9, N-(Azetidin-3-yl)-1-(phenylsulfonyl)-1H-pyrrolo[3,2-c]quinolin-4-amine dihydrochloride]",243 to 246,,
"CNC1CCN(c2nc3ccccc3c3c2ccn3S(=O)(=O)c2ccccc2)C1 (centres unmarked) (as salt: hydrochloride) [Compound 10, N-Methyl-1-(1-(phenylsulfonyl)-1H-pyrrolo[3,2-c]quinolin-4-yl)pyrrolidin-3-amine dihydrochloride]",256 to 258,,
"O=S(=O)(c1ccccc1)n1ccc2c(N3CCCNCC3)nc3ccccc3c21 (as salt: hydrochloride) [Compound 11, 4-(1,4-Diazepan-1-yl)-1-(phenylsulfonyl)-1H-pyrrolo[3,2-c]quinoline dihydrochloride]",247 to 248,,
"CN1CCN(c2nc3ccccc3c3c2ccn3S(=O)(=O)c2cccc(F)c2)CC1 (as salt: hydrochloride) [Compound 12, 1-[(3-Fluorophenyl)sulfonyl]-4-(4-methylpiperazin-1-yl)-1H-pyrrolo[3,2-c]quinoline hydrochloride]",176 to 177,,
"O=S(=O)(c1ccccc1Br)n1ccc2c(N3CCNCC3)nc3ccccc3c21 (as salt: hydrochloride) [Compound 15, 1-[(2-Bromophenyl)sulfonyl]-4-(piperazin-1-yl)-1H-pyrrolo[3,2-c]quinoline dihydrochloride]",158 to 160,,
"O=S(=O)(c1cccc(Cl)c1)n1ccc2c(N3CCNCC3)nc3ccccc3c21 (as salt: hydrochloride) [Compound 18, 1-[(3-Chlorophenyl)sulfonyl]-4-(piperazin-1-yl)-1H-pyrrolo[3,2-c]quinoline dihydrochloride]",161 to 163,,
"O=S(=O)(c1cccc(C(F)(F)F)c1)n1ccc2c(N3CCNCC3)nc3ccccc3c21 (as salt: hydrochloride) [Compound 19, 1-{[3-(Trifluoromethyl)phenyl]sulfonyl}-4-(piperazin-1-yl)-1H-pyrrolo[3,2-c]quinoline dihydrochloride]",182 to 185,,
"Cc1cccc(S(=O)(=O)n2ccc3c(N4CCNCC4)nc4ccccc4c32)c1 (as salt: hydrochloride) [Compound 20, 1-[(3-Methylphenyl)sulfonyl]-4-(piperazin-1-yl)-1H-pyrrolo[3,2-c]quinoline dihydrochloride]",179 to 181,,
"O=S(=O)(c1ccc(F)cc1)n1ccc2c(N3CCNCC3)nc3ccccc3c21 (as salt: hydrochloride) [Compound 22, 1-[(4-Fluorophenyl)sulfonyl]-4-(piperazin-1-yl)-1H-pyrrolo[3,2-c]quinoline dihydrochloride]",172 to 174,,

SMILES,melting point [°C],antagonist effect ([1]; 300 nM),other results
"O=S(=O)(c1ccc(C(F)(F)F)cc1)n1ccc2c(N3CCNCC3)nc3ccccc3c21 (as salt: hydrochloride) [Compound 23, 1-{[4-(Trifluoromethyl)phenyl]sulfonyl}-4-(piperazin-1-yl)-1H-pyrrolo[3,2-c]quinoline dihydrochloride]",165 to 167,,
"CC(C)c1ccc(S(=O)(=O)n2ccc3c(N4CCNCC4)nc4ccccc4c32)cc1 (as salt: hydrochloride) [Compound 24, 1-[(4-iso-Propylphenyl)sulfonyl]-4-(piperazin-1-yl)-1H-pyrrolo[3,2-c]quinoline dihydrochloride]",212 to 214,,
"O=S(=O)(c1cc(F)ccc1F)n1ccc2c(N3CCNCC3)nc3ccccc3c21 (as salt: hydrochloride) [Compound 27, 1-[(2,5-Difluorophenyl)sulfonyl]-4-(piperazin-1-yl)-1H-pyrrolo[3,2-c]quinoline dihydrochloride]",204 to 206,,
"CN1CCN(c2nc3ccccc3c3c2ccn3S(=O)(=O)c2ccccc2)CC1 [Compound 6, 1-(Phenylsulfonyl)-4-(4-methylpiperazin-1-yl)-1H-pyrrolo[3,2-c]quinoline hydrochloride]",,48%,antagonist effect ([1]; 100 nM): 28%; functional classification at 5-HT3R [1]: antagonistic properties
"O=S(=O)(c1ccccc1)n1ccc2c(N3CCNCC3)nc3ccccc3c21 [Compound 7, 1-(Phenylsulfonyl)-4-(piperazin-1-yl)-1H-pyrrolo[3,2-c]quinoline dihydrochloride]",,60%,antagonist effect ([1]; 100 nM): 26%; functional classification at 5-HT3R [1]: antagonistic properties
"O=S(=O)(c1ccccc1)n1ccc2c(N[C@H]3CCNC3)nc3ccccc3c21 [Compound 8, (S)-1-(Phenylsulfonyl)-N-(pyrrolidin-3-yl)-1H-pyrrolo[3,2-c]quinolin-4-amine dihydrochloride]",,32% and 32 (300 nM) %,
"O=S(=O)(c1ccccc1)n1ccc2c(NC3CNC3)nc3ccccc3c21 [Compound 9, N-(Azetidin-3-yl)-1-(phenylsulfonyl)-1H-pyrrolo[3,2-c]quinolin-4-amine dihydrochloride]",,35% and 35 (300 nM) %,
"CNC1CCN(c2nc3ccccc3c3c2ccn3S(=O)(=O)c2ccccc2)C1 (centres unmarked) [Compound 10, N-Methyl-1-(1-(phenylsulfonyl)-1H-pyrrolo[3,2-c]quinolin-4-yl)pyrrolidin-3-amine dihydrochloride]",,48% and 48 (300 nM) %,
"O=S(=O)(c1ccccc1)n1ccc2c(N3CCCNCC3)nc3ccccc3c21 [Compound 11, 4-(1,4-Diazepan-1-yl)-1-(phenylsulfonyl)-1H-pyrrolo[3,2-c]quinoline dihydrochloride]",,53% and 53 (300 nM) %,
"CN1CCN(c2nc3ccccc3c3c2ccn3S(=O)(=O)c2cccc(F)c2)CC1 [Compound 12, 1-[(3-Fluorophenyl)sulfonyl]-4-(4-methylpiperazin-1-yl)-1H-pyrrolo[3,2-c]quinoline hydrochloride]",,,antagonist effect ([1]; 30 nM): 30%; antagonist effect ([1]; 100 nM): 74%
"CN1CCN(c2nc3ccccc3c3c2ccn3S(=O)(=O)c2cccc(Cl)c2)CC1 [Compound 13, 1-[(3-Chlorophenyl)sulfonyl]-4-(4-methylpiperazin-1-yl)-1H-pyrrolo[3,2-c]quinoline hydrochloride]",,44%,antagonist effect ([1]; 100 nM): 10%
"O=S(=O)(c1ccccc1Br)n1ccc2c(N3CCNCC3)nc3ccccc3c21 [Compound 15, 1-[(2-Bromophenyl)sulfonyl]-4-(piperazin-1-yl)-1H-pyrrolo[3,2-c]quinoline dihydrochloride]",,,Ki [2]: 13 nM; antagonist effect [3]: 69%
"O=S(=O)(c1cccc(C(F)(F)F)c1)n1ccc2c(N3CCNCC3)nc3ccccc3c21 [Compound 19, 1-{[3-(Trifluoromethyl)phenyl]sulfonyl}-4-(piperazin-1-yl)-1H-pyrrolo[3,2-c]quinoline dihydrochloride]",,37%,"antagonist effect ([1]; 100 nM): 21%; pD2′ ([1]; antagonist potency, guinea pig ileum): 6.09"
"COc1cccc(S(=O)(=O)n2ccc3c(N4CCNCC4)nc4ccccc4c32)c1 [Compound 21, 1-[(3-Methoxyphenyl)sulfonyl]-4-(piperazin-1-yl)-1H-pyrrolo[3,2-c]quinoline dihydrochloride]",,73%,antagonist effect ([1]; 100 nM): 28%
"O=S(=O)(c1cc(F)ccc1F)n1ccc2c(N3CCNCC3)nc3ccccc3c21 [Compound 27, 1-[(2,5-Difluorophenyl)sulfonyl]-4-(piperazin-1-yl)-1H-pyrrolo[3,2-c]quinoline dihydrochloride]",,32 (300 nM) %,
